Assay results published in patent US20240376094A2, “SELECTIVE BCL-XL PROTAC COMPOUNDS AND METHODS OF USE” (Les Laboratoires Servier, priority 2021, published 2024).

Assays:
Assay type in all cases: cell-based
[1] = system: MOLT-4 cells; assay: MOLT-4 cell viability, CTG assay; conditions: Homo sapiens, MOLT-4, 48 h
Summary of the method: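 Viability read as total ATP luminescence (CTG) after 48 h compound treatment, 11 points at 5-fold spacing in triplicate, cells in RPMI 1640/10% FBS. IC50 is the concentration halving signal relative to control, four-parameter fit, averaged over at least 2 experiments.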

[2] = target: T1, Bcl-xL (Homo sapiens, UniProt Q07817); assay: HCT116 Bcl-xL degradation, capillary-based immunoassay (WES); conditions: HCT116, 24 h, 9-point serial dilution
T1 construct: Measured levels of Bcl-xL protein of HCT116 cells treated with the tested compounds; host or cells: HCT116
T1 sequence (Q07817 whole entry): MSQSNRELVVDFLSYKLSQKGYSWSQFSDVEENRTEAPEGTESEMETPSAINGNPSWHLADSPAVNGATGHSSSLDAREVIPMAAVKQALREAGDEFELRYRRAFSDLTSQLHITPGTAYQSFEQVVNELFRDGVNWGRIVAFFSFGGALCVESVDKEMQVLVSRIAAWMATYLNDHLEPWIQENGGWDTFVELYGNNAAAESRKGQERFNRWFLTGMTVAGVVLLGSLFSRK
Summary of the method: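 Bcl-xL protein level by capillary WES immunoassay in HCT116 lysates, as % of untreated after cofilin normalization. Compound exposure was 24 h at 10 and 100 nM and/or a 9-point series, in quadruplicate. Four-parameter fitting gave the DC50.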

[3] = system: EBC-1 lung cancer cell line; assay: EBC-1 cell proliferation, CellTiter-Glo assay; conditions: Homo sapiens, 120 h; Ebc-1 cell viability, CTG assay, 5 days of treatment; read-out: CTG 5 day Ebc1 GI50
Summary of the method: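 CellTiter-Glo read-out after 5-day compound treatment, normalised to untreated cells, with GI50 derived by four-parameter logistic regression. Ten concentrations spanning 0.508 nM–10 μM were added to 1000 EBC-1 cells per well the day after seeding. Assays required at least one cell doubling versus Day 0.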

[4] = target: T2, HiBiT-tagged BCL-xL (Homo sapiens, UniProt Q07817); assay: NCI-H1650 BCL-xL protein levels, Nano-Glo HiBiT Lytic Detection; conditions: NCI-H1650 expressing HiBiT-tagged BCL-xL, overnight incubation, read-out: Bcl-xl HIBIT NCIH1650 DC50
T2 construct: expressed in transfected cells; host or cells: NCI-H1650 (ATCC No. CRL-5883), engineered HiBiT cell line
T2 sequence (Q07817 whole entry): as above
Summary of the method: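 HiBiT luminescence after cell lysis with LgBiT/furimazine reagent reported BCL-xL levels, expressed relative to untreated wells and fitted with a four-parameter logistic equation. Engineered NCI-H1650 cells were exposed overnight at 37° C to compound at final 0.508 nM-10 μM (10 points, triplicate plates).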

| SMILES | IC50 [1] [nM] | DC50 [2] [nM] | GI50 [3] [nM] | DC50 [4] [nM] |
| --- | --- | --- | --- | --- |
| Cc1c(Nc2nc3ccccc3s2)nnc2c1CCCN2c1ccc(-c2cnn(CC34CC5(C)CC(C)(C3)CC(OCCN(C)CCCCCCCCCCCCCCCOc3ccc6c(c3)C(=O)N(C3CCC(=O)NC3=O)C6=O)(C5)C4)c2C)c(C(=O)O)n1 (stereo not shown) [Example 119, 6-[3-(1,3-benzothiazol-2-ylamino)-4-methyl-6,7-dihydro-5H-pyrido[2,3-c]pyridazin-8-yl]-3-[1-[[3-[2-[15-[2-(2,6-dioxo-3-piperidyl)-1,3-dioxo-isoindolin-5-yl]oxypentadecyl-methyl-amino]ethoxy]-5,7-dimethyl-1-adamantyl]methyl]-5-methyl-pyrazol-4-yl]pyridine-2-carboxylic acid] | 4.78 | 0.681 | 69 | > 1670 |
| Cc1ncsc1-c1ccc([C@H](C)NC(=O)[C@@H]2C[C@@H](O)CN2C(=O)[C@@H](NC(=O)CCCCCCNC(=O)c2nc(N3CCCc4c3nnc(Nc3nc5ccccc5s3)c4C)ccc2-c2cnn(CC34CC5(C)CC(C)(C3)CC(OCCN3CCCC3)(C5)C4)c2C)C(C)(C)C)cc1 [Example 120, 6-[3-(1,3-benzothiazol-2-ylamino)-4-methyl-6,7-dihydro-5H-pyrido[2,3-c]pyridazin-8-yl]-3-[1-[[3,5-dimethyl-7-(2-pyrrolidin-1-ylethoxy)-1-adamantyl]methyl]-5-methyl-pyrazol-4-yl]-N-[7-[[(1S)-1-[(2S,4R)-4-hydroxy-2-[[(1S)-1-[4-(4-methylthiazol-5-yl)phenyl]ethyl]carbamoyl]pyrrolidine-1-carbonyl]-2,2-dimethyl-propyl]amino]-7-oxo-heptyl]pyridine-2-carboxamide] | 7.29 | 1.68 | 119 | 1 |
| Cc1ncsc1-c1ccc([C@H](C)NC(=O)[C@@H]2C[C@@H](O)CN2C(=O)[C@@H](NC(=O)CCCCNC(=O)c2nc(N3CCCc4c3nnc(Nc3nc5ccccc5s3)c4C)ccc2-c2cnn(CC34CC5(C)CC(C)(C3)CC(OCCN3CCCC3)(C5)C4)c2C)C(C)(C)C)cc1 [Example 122, 6-[3-(1,3-benzothiazol-2-ylamino)-4-methyl-6,7-dihydro-5H-pyrido[2,3-c]pyridazin-8-yl]-3-[1-[[3,5-dimethyl-7-(2-pyrrolidin-1-ylethoxy)-1-adamantyl]methyl]-5-methyl-pyrazol-4-yl]-N-[5-[[(1S)-1-[(2S,4R)-4-hydroxy-2-[[(1S)-1-[4-(4-methylthiazol-5-yl)phenyl]ethyl]carbamoyl]pyrrolidine-1-carbonyl]-2,2-dimethyl-propyl]amino]-5-oxo-pentyl]pyridine-2-carboxamide] | 4.6 | > 316 | 46 | > 1670 |

Continued by falling IC50 [1], values first:

| IC50 [1] [nM] | DC50 [2] [nM] | GI50 [3] [nM] | DC50 [4] [nM] | SMILES |
| --- | --- | --- | --- | --- |
| 9.99 | 2.57 | 190 | 1 | Cc1cc(N(CCCCN(C)C(=O)CCCCCCCCCCCC(=O)N[C@H](C(=O)N2C[C@H](O)C[C@H]2C(=O)N[C@@H](C)c2ccc(-c3scnc3C)cc2)C(C)(C)C)c2ccc(-c3cnn(C[C@]45C[C@]6(C)C[C@](C)(C4)C[C@@](OCCN(C)C)(C6)C5)c3C)c(C(=O)O)n2)nnc1Nc1nc2ccccc2s1 [Example 121, 6-[[6-(1,3-benzothiazol-2-ylamino)-5-methyl-pyridazin-3-yl]-[4-[[13-[[(1S)-1-[(2S,4R)-4-hydroxy-2-[[(1S)-1-[4-(4-methylthiazol-5-yl)phenyl]ethyl]carbamoyl]pyrrolidine-1-carbonyl]-2,2-dimethyl-propyl]amino]-13-oxo-tridecanoyl]-methyl-amino]butyl]amino]-3-[1-[[3-[2-(dimethylamino)ethoxy]-5,7-dimethyl-1-adamantyl]methyl]-5-methyl-pyrazol-4-yl]pyridine-2-carboxylic acid] |
| 9.34 | 0.487 | 81 | 1 | Cc1ncsc1-c1ccc([C@H](C)NC(=O)[C@@H]2C[C@@H](O)CN2C(=O)[C@@H](NC(=O)CCCCCCCCCCNC(=O)c2nc(N3CCCc4c3nnc(Nc3nc5ccccc5s3)c4C)ccc2-c2cnn(CC34CC5(C)CC(C)(C3)CC(OCCN3CCCC3)(C5)C4)c2C)C(C)(C)C)cc1 [Example 125, 6-[3-(1,3-benzothiazol-2-ylamino)-4-methyl-6,7-dihydro-5H-pyrido[2,3-c]pyridazin-8-yl]-3-[1-[[3,5-dimethyl-7-(2-pyrrolidin-1-ylethoxy)-1-adamantyl]methyl]-5-methyl-pyrazol-4-yl]-N-[11-[[(1S)-1-[(2S,4R)-4-hydroxy-2-[[(1S)-1-[4-(4-methylthiazol-5-yl)phenyl]ethyl]carbamoyl]pyrrolidine-1-carbonyl]-2,2-dimethyl-propyl]amino]-11-oxo-undecyl]pyridine-2-carboxamide] |
| 7.83 | > 316 | 84 | > 1670 | Cc1ncsc1-c1ccc(CNC(=O)[C@@H]2C[C@@H](O)CN2C(=O)[C@@H](NC(=O)C2(F)CC2)C(C)(C)SCCCCCCCCCCCCCN(C)CCOC23CC4(C)CC(C)(CC(Cn5ncc(-c6ccc(N7CCCc8c7nnc(Nc7nc9ccccc9s7)c8C)nc6C(=O)O)c5C)(C4)C2)C3)cc1 [Example 118, 6-[3-(1,3-benzothiazol-2-ylamino)-4-methyl-6,7-dihydro-5H-pyrido[2,3-c]pyridazin-8-yl]-3-[1-[[3-[2-[13-[(2R)-2-[(1-fluorocyclopropanecarbonyl)amino]-3-[(2S,4R)-4-hydroxy-2-[[4-(4-methylthiazol-5-yl)phenyl]methylcarbamoyl]pyrrolidin-1-yl]-1,1-dimethyl-3-oxo-propyl]sulfanyltridecyl-methyl-amino]ethoxy]-5,7-dimethyl-1-adamantyl]methyl]-5-methyl-pyrazol-4-yl]pyridine-2-carboxylic acid] |
| 3.69 | 1.01 | 25 | 1 | Cc1ncsc1-c1ccc([C@H](C)NC(=O)[C@@H]2C[C@@H](O)CN2C(=O)[C@@H](NC(=O)CCCCCCCCNC(=O)c2nc(N3CCCc4c3nnc(Nc3nc5ccccc5s3)c4C)ccc2-c2cnn(C[C@]34C[C@]5(C)C[C@](C)(C3)C[C@@](OCCN3CCCC3)(C5)C4)c2C)C(C)(C)C)cc1 [Example 124, 6-[3-(1,3-benzothiazol-2-ylamino)-4-methyl-6,7-dihydro-5H-pyrido[2,3-c]pyridazin-8-yl]-3-[1-[[3,5-dimethyl-7-(2-pyrrolidin-1-ylethoxy)-1-adamantyl]methyl]-5-methyl-pyrazol-4-yl]-N-[9-[[(1S)-1-[(2S,4R)-4-hydroxy-2-[[(1S)-1-[4-(4-methylthiazol-5-yl)phenyl]ethyl]carbamoyl]pyrrolidine-1-carbonyl]-2,2-dimethyl-propyl]amino]-9-oxo-nonyl]pyridine-2-carboxamide] |
